Measurements taken from ChEMBL document CHEMBL1134879, “3D-QSAR studies on 4-hydroxyphenylpyruvate dioxygenase inhibitors by comparative molecular field analysis (CoMFA)” (Bioorg Med Chem Lett, 2002).

Legend:
[1] = target: T1, 4-hydroxyphenylpyruvate dioxygenase (Sus scrofa, UniProt Q02110); assay: Concentration required to achieve 50% inhibition against 4-Hydroxyphenylpyruvate dioxygenase (HPPD) from pig liver
[2] = target: T1, 4-hydroxyphenylpyruvate dioxygenase; assay: Concentration required to achieve 50% inhibition against 4-Hydroxyphenylpyruvate dioxygenase (HPPD) from pig liver; (observed value)
[3] = target: T1, 4-hydroxyphenylpyruvate dioxygenase; assay: Concentration required to achieve 50% inhibition against 4-hydroxyphenylpyruvate dioxygenase from pig liver; (observed value)
[4] = target: T1, 4-hydroxyphenylpyruvate dioxygenase; assay: Concentration required to achieve 50% inhibition against 4-hydroxyphenylpyruvate dioxygenase from pig liver

T1 sequence (Q02110 whole entry): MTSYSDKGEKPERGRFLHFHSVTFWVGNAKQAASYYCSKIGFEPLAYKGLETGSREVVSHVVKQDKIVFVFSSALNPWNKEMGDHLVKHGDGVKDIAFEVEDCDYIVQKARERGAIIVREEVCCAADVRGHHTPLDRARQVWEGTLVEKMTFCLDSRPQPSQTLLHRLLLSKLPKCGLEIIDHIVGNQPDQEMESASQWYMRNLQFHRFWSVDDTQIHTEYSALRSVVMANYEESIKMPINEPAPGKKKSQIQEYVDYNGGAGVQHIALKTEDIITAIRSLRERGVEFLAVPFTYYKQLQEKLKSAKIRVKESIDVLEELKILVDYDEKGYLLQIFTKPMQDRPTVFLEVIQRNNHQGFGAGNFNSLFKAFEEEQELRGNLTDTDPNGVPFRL

Structure (SMILES) | IC50 [1] [nM] | IC50 [2] [nM] | IC50 [3] [nM] | IC50 [4] [nM]
O=C1CCCC(OC(=O)C2CC2)=C1Cl | 20 | 20 |  | 
O=C1CCCC(=O)C1=C(O)c1ccccc1 | 11200 | 11200 |  | 
CC(C)C(=O)C1=C(O)CCCC1=O |  |  | 93300 | 93300
Cc1ccccc1C(O)=C1C(=O)CCCC1=O | 3750 | 3720 |  | 
O=C1C=C(OC(=O)C2CC2)CC1 | 70 | 70.8 |  | 
O=C1CCCC(=O)C1=C(O)c1ccccc1I | 760 | 759 |  | 
O=C1CCCC(=O)C1=C(O)c1ccccc1Br | 560 | 562 |  | 
O=C1CCCC(OC(=O)C2CC2)=C1Br | 30 | 30.2 |  | 
O=C1CCCC(O)=C1C(=O)C1CCCCC1 |  |  | 363000 | 365000
O=C(Oc1cccc(O)c1)C1CC1 | 250 | 251 |  | 
CCOC(=O)C1CC(=O)C(C(=O)C2CC2)=C(OC(=O)C2CC2)C1 (stereo not drawn) | 40 | 39.8 |  | 
CS(=O)(=O)c1ccc(C(O)=C2C(=O)CCCC2=O)c(Cl)c1 | 50 |  |  | 
O=C(Oc1cc(=O)oc2ccccc12)C1CC1 | 110 | 110 |  | 
CC1(C)CC(=O)C=C(OC(=O)C2CC2)C1 | 330 | 331 |  | 
O=C1CCCC(O)=C1C(=O)C1CC1 |  |  | 6030 | 6000
O=C1CCCC(=O)C1=C(O)c1ccccc1C(F)(F)F | 250 | 251 |  | 
CCOC(=O)C1CC(=O)C=C(OC(=O)C2CC2)C1 (stereo not drawn) | 90 | 89.1 |  | 
O=C1CCCC(=O)C1=C(O)c1ccccc1Cl | 500 | 501 |  | 
COc1ccccc1C(O)=C1C(=O)CCCC1=O | 11700 | 11700 |  | 
COC1=CC(=O)C(OC(=O)C2CC2)=CC1=O | 30000 | 30200 |  | 
CC(=O)C1=C(O)CCCC1=O |  |  | 11200 | 11200
CCC(=O)C1=C(O)CCCC1=O |  |  | 17800 | 17800
